Results as given in the supplement of paper PMC10307832.

Tests used:
Experiment in all cases: relative viability (nuclei count vs DMSO), 5 days (fraction); higher = more cells survive
Lestaurtinib + Foretinib = compound: C[C@]12O[C@H](C[C@]1(O)CO)n1c3ccccc3c3c4c(c5c6ccccc6n2c5c31)CNC4=O [Lestaurtinib] + COc1cc2c(Oc3ccc(NC(=O)C4(C(=O)Nc5ccc(F)cc5)CC4)cc3F)ccnc2cc1OCCCN1CCOCC1 [Foretinib] (partner 0.25 µM)
Procedure, shortened: (§1)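 One day after seeding in 1536-well plates, lung cancer cell lines were dosed by pin tool. Dosing was either single-drug or a fixed anchor-drug dose plus five library-drug doses (not always all listed) in √10 steps. After 5 days, nuclei were stained in one fix-and-stain step and counted on 4× images, and relative viability is the nuclei count of treated wells over that of vehicle wells, given as the median of duplicate plates.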

[1] = compound: C[C@]12O[C@H](C[C@]1(O)CO)n1c3ccccc3c3c4c(c5c6ccccc6n2c5c31)CNC4=O [Lestaurtinib] + CS(=O)(=O)N1CCN(Cc2cc3nc(-c4cccc5[nH]ncc45)nc(N4CCOCC4)c3s2)CC1 [Pictilisib] (partner 1 µM)
Procedure, shortened: as §1

TPCA-1 + OSI-027 = compound: C1=CC(=CC=C1C2=CC(=C(S2)NC(=O)N)C(=O)N)F [TPCA-1] + COc1cccc2cc(-c3nc([C@H]4CC[C@H](C(=O)O)CC4)n4ncnc(N)c34)[nH]c12 [OSI-027] (partner 0.5 µM)
Procedure, shortened: as §1

[2] = compound: C[C@]12O[C@H](C[C@]1(O)CO)n1c3ccccc3c3c4c(c5c6ccccc6n2c5c31)CNC4=O [Lestaurtinib] + CC(=O)c1c(C)c2cnc(Nc3ccc(N4CCNCC4)cn3)nc2n(C2CCCC2)c1=O [Palbociclib] (partner 0.5 µM)
Procedure, shortened: as §1

Cell Line	relative viability (Lestaurtinib + Foretinib; first compound 0.005 µM)	relative viability (Lestaurtinib + Foretinib; first compound 0.01581 µM)	relative viability (Lestaurtinib + Foretinib; first compound 0.05 µM)	relative viability (Lestaurtinib + Foretinib; first compound 0.1581 µM)	relative viability (Lestaurtinib + Foretinib; first compound 0.5 µM)	relative viability ([1]; first compound 0.005 µM)	relative viability ([1]; first compound 0.01581 µM)	relative viability ([1]; first compound 0.05 µM)	relative viability ([1]; first compound 0.1581 µM)	relative viability ([1]; first compound 0.5 µM)	relative viability (TPCA-1 + OSI-027; first compound 0.04 µM)	relative viability (TPCA-1 + OSI-027; first compound 0.1265 µM)	relative viability (TPCA-1 + OSI-027; first compound 0.4 µM)	relative viability (TPCA-1 + OSI-027; first compound 1.265 µM)	relative viability (TPCA-1 + OSI-027; first compound 4 µM)	relative viability ([2]; first compound 0.005 µM)	relative viability ([2]; first compound 0.01581 µM)	relative viability ([2]; first compound 0.05 µM)	relative viability ([2]; first compound 0.1581 µM)	relative viability ([2]; first compound 0.5 µM)
LK-2	1.16	1.19	0.683	0.774	0.309	0.57	0.648	0.481	0.433	0.28	0.222	0.174	0.232	0.205	0.198	0.705	0.833	0.756	0.53	0.307
LOU-NH91	0.921	0.842	0.844	0.651	0.459	0.539	0.482	0.517	0.444	0.314	0.75	0.662	0.735	0.793	0.73	0.567	0.524	0.586	0.558	0.522
NCI-H522											0.744	0.721	0.843	0.837	0.643	0.998	1	0.879	0.871	0.631
NCI-H596	0.724	0.946	0.82	1.1	0.671	0.375	0.378	0.375	0.31	0.293	0.717	0.584	0.678	0.787	0.389					
NCI-H1299	1.07	1.14	0.68	0.832	0.671	0.558	0.502	0.222	0.305	0.133										
NCI-H1563	0.977	0.96	0.978	0.97	0.991	0.635	0.709	0.618	0.638	0.536	0.784	0.766	0.827	0.712	0.688					
NCI-H1623	0.872	0.812	0.818	0.671	0.695						0.497	0.509	0.484	0.514	0.389					
NCI-H1648											0.266	0.244	0.247	0.208	0.257		0.317		0.393	0.466
NCI-H1703	0.322	0.305	0.27	0.315	0.252	0.254	0.217	0.201	0.173	0.132										
NCI-H1792						0.316	0.302	0.243	0.141	0.129	0.701	0.653	0.696	0.618	0.564	0.976	0.734	0.491	0.768	0.366
NCI-H2342	1.17	1.06	1.08	1.08	0.922						0.566	0.537	0.536	0.555	0.514	0.518	0.439	0.545	0.526	0.504
SW 900	0.719	0.891	1.17	0.868	0.793						0.705	0.576	0.768	0.463	0.475	0.561	0.666	0.611	0.828	0.595
